Experimental data: patent publication US7488576B2, “Methods for diagnosis and treatment of psychiatric disorders” (The Regents of the University of California, priority 2000, dated 2009)
Several values for one entry are separate records, joined by “and”; a condition that tells them apart may be missing. Equal entries are not always repeated.

Assays:
DBP = assay: Gene expression in rat brain after stimulant treatment (Affymetrix U34A GeneChip), prefrontal cortex; settings: 24 h, read-out: Fold Induction of DBP
Description: (§1) In experiments conducted during the development of the present invention, the rat animal model was used. This model is commonly accepted by those in the art for experiments involving psychiatric disorders. In some experiments, rats were treated with a single dose of methamphetamine (4 mg/kg) and sacrificed 24 hours later. This timepoint was chosen as that most likely to detect changes of relevance to mania and psychosis. It was hypothesized that at 24 hours, most short term gene induction relevant to acute intoxication and behavioral activation would have subsided. […] As mania and psychosis are typically chronic processes in man, more persistent gene changes are more likely to be central to pathophysiological mechanisms. Gene expression was examined in the prefrontal cortex and amygdala, using the Afymetrix U34A GeneChip, which interrogates approximately 7,000 known genes and 1,000 ESTs (expressed sequence tags) using an oligonucleotide nicroarray (See, Lipshutz et al., Nat. Genet. 21:20 [1999]). These brain regions were chosen based on the extensive literature that highlights their central role in cognition and emotion (See e.g., Heimer and Alheid, Adv. Exp. Med. Biol. 1:295 [1991]).
(§2) A two-fold increase or decrease in expression was chosen as a conventional empirical cut-off. Thus, at least a two-fold change in each of two independent animal experiments was used to select those genes with the most robust and reproducible change in expression. In each experiment, pooled tissues from three methamphetamine-treated and three control rats were used. In these analyses, standard default settings of the Affymetrix GeneChip Expression Algorithm were used. A gene had to be called “Present” and “Changed,” in at least one out of two experiments and had to have an Average Difference Change greater than 50, as well as a fold change greater than 2 in two out of two experiments. […] The genes that were induced more than two-fold in both experiments were also identified by their GenBank accession numbers, as indicated in Tables 1 and 2.
(§3) After 24 hours, the rats were humanely sacrificed and the brains were harvested.
(§4) Tissues from each brain region from the three animals in each experimental group were pooled (i.e., test and control animals). Total RNA was isolated from the tissue using standard protocols known in the art. Briefly, STAT-60 extraction buffer, and phenol/chloroform extraction was used. cDNA was synthesized and used as templates to produce biotin-labelled antisense cRNAs using an in vitro transcription reaction. After fragmentation, the CRNA hybridization cocktail was prepared, cleaned, and applied to the Affymetrix GeneChip oligonucleotide array.
(§5) A two-fold increase or decrease in expression was chosen as a conventional empirical cut-off. […]

FDFT1 = assay: as above; settings: 24 h, read-out: Fold Induction of FDFT1
Description: as §1, §2, §3, §4, §5

GRK3 = assay: as above; settings: 24 h, read-out: Fold Induction of GRK3
Description: as §1, §2, §3, §4, §5

MALS-1 = assay: as above; settings: 24 h, read-out: Fold Induction of MALS-1
Description: as §1, §2, §3, §4, §5

ADORA3 = assay: Gene expression in rat brain after stimulant treatment (Affymetrix U34A GeneChip), amygdala; settings: 24 h, read-out: Fold Induction of ADORA3
Description: as §1, §2, §3, §4
(§6) A two-fold increase or decrease in expression was chosen as a conventional empirical cut-off. Thus, at least a two-fold change in each of two independent animal experiments was used to select those genes with the most robust and reproducible change in expression. In these analyses, standard default settings of the Affymetrix GeneChip Expression Algorithm were used.

FCGRT = assay: as above; settings: 24 h, read-out: Fold Induction of FCGRT
Description: as §1, §2, §3, §4, §6

FEZ2 = assay: as above; settings: 24 h, read-out: Fold Induction of FEZ2
Description: as §1, §2, §3, §4, §6

HSPB1 = assay: as above; settings: 24 h, read-out: Fold Induction of HSPB1
Description: as §1, §2, §3, §4, §6

IGF1 = assay: as above; settings: 24 h, read-out: Fold Induction of IGF1
Description: as §1, §2, §3, §4, §6

NDUFS8 = assay: as above; settings: 24 h, read-out: Fold Induction of NDUFS8
Description: as §1, §2, §3, §4, §6

NTRK3 = assay: as above; settings: 24 h, read-out: Fold Induction of NTRK3
Description: as §1, §2, §3, §4, §6

POLR2F = assay: as above; settings: 24 h, read-out: Fold Induction of POLR2F
Description: as §1, §2, §3, §4, §6

SULT1A1 = assay: as above; settings: 24 h, read-out: Fold Induction of SULT1A1
Description: as §1, §2, §3, §4, §6

FGFR1 = assay: Gene expression in rat brain after stimulant treatment (Affymetrix U34A GeneChip); format: in vivo; settings: 24 hours after single dose 4 mg/kg
Description: as §1
(§7) A two-fold increase or decrease in expression was chosen as a conventional empirical cut-off. Thus, at least a two-fold change in each of two independent animal experiments was used to select those genes with the most robust and reproducible change in expression. In each experiment, pooled tissues from three methamphetamine-treated and three control rats were used. In these analyses, standard default settings of the Affymetrix GeneChip Expression Algorithm were used. A gene had to be called “Present” and “Changed,” in at least one out of two experiments and had to have an Average Difference Change greater than 50, as well as a fold change greater than 2 in two out of two experiments. […] The genes that were induced more than two-fold in both experiments were also identified by their GenBank accession numbers, as indicated in Tables 1 and 2. […]

GRK2 = assay: as above; format: in vivo; settings: 24 hours after single dose 4 mg/kg, one value per each of two experiments
Description: as §1, §7

## CN[C@@H](C)Cc1ccccc1 [methamphetamine]
DBP
  fold induction at 4 mg/kg: 7
FDFT1
  fold induction at 4 mg/kg: 2.9
GRK3
  fold induction at 4 mg/kg: 14.2
MALS-1
  fold induction at 4 mg/kg: 2.9
ADORA3
  fold induction at 4 mg/kg: 2.7
FCGRT
  fold induction at 4 mg/kg: 3.2
FEZ2
  fold induction at 4 mg/kg: 2.3
HSPB1
  fold induction at 4 mg/kg: 2.8
IGF1
  fold induction at 4 mg/kg: 3
NDUFS8
  fold induction at 4 mg/kg: 20.8
NTRK3
  fold induction at 4 mg/kg: 2.7
POLR2F
  fold induction at 4 mg/kg: 3.9
SULT1A1
  fold induction at 4 mg/kg: 4.3
FGFR1; average of two experiments
  average fold change of FGFR1 expression: 4.1 fold
FGFR1; one of the two experiments
  fold increase of FGFR1 expression in one of the two experiments: 1.8 fold
GRK2
  fold changes in GRK2 expression: 1.1 fold and 1.0 fold
